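These data come from cells grown in 96-well plates and exposed to compound for 48 hours at five concentrations. Abbreviation: GI50, concentration required for 50% inhibition of growth.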 Activity calls are given as the source filed them. Rule as the data show it: active = GI50 up to about 1.1 µM and inactive = higher.

Some test systems named below: CCRF-CEM; NCI-H522; MOLT-4; UACC-62; SNB-19; U-251; OVCAR-5; HT-29; SK-MEL-5; HCT-15; SK-MEL-2; RPMI-8226; COLO 205; NCI-H23; OVCAR-4; HL-60.
Common to all, as to assay: growth of human tumour cells (NCI), 48 h

As for `O=c1cc(O)cc2n1CCC2`, the GI50 in the assay on CCRF-CEM, in the assay with NCI-H522, in the assay on MOLT-4, in the assay on UACC-62, with SNB-19 and with U-251 was > 100 µM (inactive) in each case. The GI50 with OVCAR-5 was > 100 µM (inactive); in the assay with HT-29, > 100 µM (inactive); with SK-MEL-5 it was > 100 µM (inactive); in the assay with HCT-15, above 100 µM; in the assay with SK-MEL-2, > 100 µM (inactive); in the assay on RPMI-8226 it was > 100 µM (inactive). For the same compound, the GI50 with COLO 205 was > 100 µM (inactive).
For the compound `COC(=O)/C(=N\NC(N)=O)C(C(=O)C(=O)Nc1ccccc1C(=O)OC)c1nc2ccc(C(=O)c3ccccc3)cc2nc1O` (configuration not stated), the GI50 in the assay on NCI-H23, in the assay on CCRF-CEM, with NCI-H522, in the assay with MOLT-4, in the assay on UACC-62 and in the assay on SNB-19 was > 100 µM (inactive) each time. Besides, the GI50 with U-251, with OVCAR-5, in the assay with OVCAR-4, in the assay on HL-60, in the assay on HT-29 and with SK-MEL-5 was > 100 µM (inactive) throughout. In addition, the values for the GI50 in the assay with HCT-15, in the assay with SK-MEL-2 and in the assay on RPMI-8226 were above 100 µM, > 100 µM (inactive) and > 100 µM (inactive), respectively.
For the compound `COc1ccc(/C(=N\NC(=O)C(=O)NN)C(c2ccc(OC)cc2)C2(O)C(=O)Nc3ccccc32)cc1` (configuration not stated), the GI50 was 89.5 µM (inactive) in the assay on NCI-H23; > 10 µM (inactive) in the assay with CCRF-CEM; 28.1 µM (inactive) with NCI-H522; 6.44 µM (inactive) with MOLT-4; 45.3 µM (inactive) with UACC-62; 53.3 µM (inactive) with SNB-19. Also, the GI50 was > 100 µM (inactive) in the assay on U-251; > 100 µM (inactive) with OVCAR-5; 14.5 µM (inactive) in the assay on HT-29; 22.4 µM (inactive) in the assay with SK-MEL-5; 94.8 µM with HCT-15; 69.7 µM (inactive) in the assay on SK-MEL-2. For the same compound, the GI50 is 69.7 µM (inactive) in the assay with RPMI-8226 and > 100 µM (inactive) with COLO 205.
On to `O=C1C2C3CC4C5C3C1C5C1(SCCS1)C42` (configuration not stated), for which the GI50 with CCRF-CEM, in the assay on NCI-H522, with MOLT-4, in the assay on UACC-62, in the assay on SNB-19 and in the assay on U-251 was > 100 µM (inactive) in each case. For the same compound, the GI50 was > 100 µM (inactive) with OVCAR-4; > 100 µM (inactive) in the assay with HL-60; > 100 µM (inactive) in the assay with SK-MEL-5; above 100 µM with HCT-15; > 100 µM (inactive) in the assay with SK-MEL-2; > 100 µM (inactive) with RPMI-8226. For the same compound, the GI50 with COLO 205 was > 100 µM (inactive).
With `N#CCCN(c1ccc(C=O)cc1)S(=O)(=O)c1ccccc1`, the GI50 in the assay with NCI-H522, in the assay with MOLT-4, in the assay on UACC-62, in the assay on SNB-19, in the assay on U-251 and in the assay on OVCAR-5 was > 100 µM (inactive) throughout. Further, the GI50 with OVCAR-4 is > 100 µM (inactive); in the assay on HL-60, > 100 µM (inactive); in the assay with HT-29, > 100 µM (inactive); in the assay with SK-MEL-5 it was > 100 µM (inactive); with HCT-15, above 100 µM; in the assay on SK-MEL-2, > 100 µM (inactive). Moreover, the GI50 in the assay on RPMI-8226 was > 100 µM (inactive).
Regarding `Cn1c(=O)nc2n(-c3ccc(Cl)cc3)c3ccc(Cl)cc3nc-2c1=O`, the GI50 with NCI-H23 was 2.36 µM (inactive); in the assay with CCRF-CEM, 13.6 µM (inactive); with NCI-H522, 6.35 µM (inactive); in the assay on MOLT-4, 16.8 µM (inactive); in the assay on UACC-62, 1.07 µM (active); in the assay on SNB-19, > 10 µM (inactive). Besides, the GI50 in the assay on U-251 is 1.98 µM (inactive); in the assay on OVCAR-5, 16.1 µM (inactive); with HL-60, 2.68 µM (inactive); in the assay with HT-29 it was 8.79 µM (inactive); in the assay with SK-MEL-5 it was 1.04 µM (active); in the assay on HCT-15, 8.02 µM. Besides, the GI50 in the assay with SK-MEL-2 is 4.36 µM (inactive).
Take `CCN(CC)CCn1c2c3ccccc3ccc2c2oc(=O)c3ccccc3c21`: the GI50 in the assay on NCI-H23 is > 100 µM (inactive); in the assay on CCRF-CEM it was > 100 µM (inactive); in the assay on NCI-H522, > 100 µM (inactive); with UACC-62, > 100 µM (inactive); in the assay on SNB-19, 80 µM (inactive); with U-251 it was 57 µM (inactive). In addition, the GI50 with OVCAR-5 was > 100 µM (inactive); in the assay with OVCAR-4, 28.1 µM (inactive); in the assay on HL-60, > 100 µM (inactive); in the assay with HT-29, > 100 µM (inactive); in the assay on HCT-15 it was above 100 µM; in the assay with SK-MEL-2, > 100 µM (inactive). For the same compound, the GI50 in the assay on RPMI-8226 and in the assay on COLO 205 was > 100 µM (inactive) each time.
Turning to `Cc1cc(O)nc(CNC(=O)Cc2ccccc2)n1`, the GI50 with NCI-H23, with CCRF-CEM, in the assay with NCI-H522, with MOLT-4, in the assay with UACC-62 and in the assay with SNB-19 was > 100 µM (inactive) throughout. Moreover, the GI50 with OVCAR-5 was > 100 µM (inactive); with OVCAR-4, > 100 µM (inactive); in the assay on HL-60, > 100 µM (inactive); with HT-29, > 100 µM (inactive); in the assay with HCT-15, above 100 µM; in the assay with SK-MEL-2, > 100 µM (inactive). For the same compound, the GI50 in the assay on RPMI-8226 and in the assay on COLO 205 was > 100 µM (inactive) throughout.
Turning to `CC1=COC(=O)c2ccccc2N1`, the GI50 with NCI-H23, in the assay on CCRF-CEM, in the assay with NCI-H522, with UACC-62, in the assay with SNB-19 and in the assay on U-251 was > 100 µM (inactive) each time. Moreover, the GI50 in the assay on OVCAR-5 is > 100 µM (inactive); with OVCAR-4, > 100 µM (inactive); in the assay with HL-60, > 100 µM (inactive); with HT-29, > 100 µM (inactive); in the assay with SK-MEL-5, > 100 µM (inactive); in the assay on HCT-15 it was above 100 µM. Also, the GI50 with SK-MEL-2, in the assay on RPMI-8226 and in the assay on COLO 205 was > 100 µM (inactive) in each case.
Take `O=C(N/N=C/c1cccc(O)c1O)N/N=C/c1cccc(O)c1O`: the GI50 is 25.2 µM (inactive) with NCI-H23; 3.5 µM (inactive) with CCRF-CEM; 5.38 µM (inactive) with MOLT-4; 11.9 µM (inactive) in the assay on UACC-62; 30.2 µM (inactive) in the assay with SNB-19; 12.3 µM (inactive) in the assay with U-251. Further, the GI50 in the assay on OVCAR-5 is 22.2 µM (inactive); in the assay with OVCAR-4, 28.2 µM (inactive); with HT-29, 44.8 µM (inactive); in the assay on HCT-15 it was 8.45 µM; in the assay with SK-MEL-2, 24 µM (inactive); in the assay on RPMI-8226 it was 19.8 µM (inactive). The GI50 in the assay on COLO 205 was > 100 µM (inactive).
For `CCCCN(CC)C(=O)C(=O)C1C(=O)Nc2ccccc2[S+]1[O-]` (configuration not stated), the GI50 in the assay on NCI-H23, with CCRF-CEM, in the assay on NCI-H522, in the assay with MOLT-4, in the assay on UACC-62 and with SNB-19 was > 100 µM (inactive) in each case. The GI50 in the assay on U-251 is > 100 µM (inactive); in the assay on OVCAR-5 it was > 100 µM (inactive); in the assay on OVCAR-4, > 100 µM (inactive); with HT-29, > 100 µM (inactive); in the assay on SK-MEL-5, > 100 µM (inactive); with HCT-15, above 100 µM. The GI50 in the assay on SK-MEL-2, in the assay on RPMI-8226 and with COLO 205 was > 100 µM (inactive) in each case.
Regarding `CCN1N=CSC12C(=O)N(c1ccccc1)C(=O)N2c1ccccc1` (configuration not stated), the GI50 in the assay on NCI-H23, in the assay on CCRF-CEM, in the assay with NCI-H522, with MOLT-4, in the assay with UACC-62 and in the assay with SNB-19 was > 100 µM (inactive) each time. In addition, the GI50 in the assay with U-251 was > 100 µM (inactive); with OVCAR-4 it was > 100 µM (inactive); in the assay on HL-60, 80.5 µM (inactive); with HT-29 it was > 100 µM (inactive); with SK-MEL-5, > 100 µM (inactive); in the assay with COLO 205, > 100 µM (inactive).
Consider `CC(C)(C)C1CCC(=O)C(C(O)CC2CC(=O)N(c3ccccc3)C(=O)C2)C1` (configuration not stated), for which the GI50 with NCI-H23 was > 100 µM (inactive); in the assay with CCRF-CEM, 53.1 µM (inactive); in the assay with NCI-H522 it was 50.4 µM (inactive); with MOLT-4 it was 54.5 µM (inactive); in the assay on UACC-62, > 100 µM (inactive); in the assay on SNB-19, > 100 µM (inactive). For the same compound, the GI50 with U-251 was 80.2 µM (inactive); in the assay with OVCAR-5, > 100 µM (inactive); with OVCAR-4 it was > 100 µM (inactive); in the assay on HL-60 it was > 100 µM (inactive); with HT-29, > 100 µM (inactive); with HCT-15 it was above 100 µM. Further, the GI50 in the assay on RPMI-8226 was 73.1 µM (inactive); with COLO 205 it was > 100 µM (inactive).
Regarding `COc1ccc(C2Cc3cc(OC)c(OC)c(OC)c3C2=O)cc1` (configuration not stated), the GI50 with NCI-H23 is 87.9 µM (inactive); with CCRF-CEM, > 100 µM (inactive); with MOLT-4, > 100 µM (inactive); in the assay with UACC-62 it was > 100 µM (inactive); with SNB-19, > 100 µM (inactive); with U-251, > 100 µM (inactive). Besides, the GI50 in the assay on OVCAR-5 was > 100 µM (inactive); with OVCAR-4, > 100 µM (inactive); in the assay on HT-29, > 100 µM (inactive); in the assay on SK-MEL-5, 75.3 µM (inactive); in the assay on HCT-15, above 100 µM; with SK-MEL-2, > 100 µM (inactive). For the same compound, the GI50 in the assay with RPMI-8226 and with COLO 205 was > 100 µM (inactive) throughout.

These data come from ChEMBL document CHEMBL1201862, “PubChem BioAssay data set” (2004).
